Laboratory results: patent US11607404B2, “Combinations of RAD51 and PARP inhibitors” (Cyteir Therapeutics, Inc., priority 2019, dated 2023)
Where two headings read alike, the source gives them in different places. Values belong to the compound of their own block, whether it stands above or below them.

Assays:
[1] = tested on: Daudi cell line (AID positive); experiment: Primary screening cell killing assay (Cell-Titer Glo, Day 7); type: cell-based; conditions: Homo sapiens, 168 h; Daudi cells (AID positive), cell death on Day 7; read-out: AID+ EC50
Description: (§1) Primary screening was a phenotypic screen that utilized the synthetic lethal interaction between AID and RAD51 to identify compounds that were both potent and on target. AID expressing cells are dependent upon RAD51 for survival; inhibiting RAD51 in AID positive cells results in a cytotoxic effect.
The first step was to set up a cell killing assay in the Daudi cell line (AID positive). A 96 well u-bottom plate was prepared by writing the experiment number, plate number, date and initials in the top right corner of the plate lid. With a sterile 300 ml reservoir, and 25 ml serological pipette, evaporation buffer media was pipetted into reservoir in 25 ml increments. Using the liquid handler, 150 ul of evaporation buffer media was pipetted from reservoir into rows A and H, and Columns 1 and 12 of the 96 well u-bottom plate. Cell cultures were counted to obtain the density of cells per ml, and the culture viability. The cell density information was used to obtain 1,000,000 cells from culture using a 5 mL serological pipette into an epi tube. The cell density information from the culture was used to calculate the number of cells and volume of media needed for the assay to seed 1250 cells in 130 ul of media per available culture well in the 96 well u-bottom plate. Rows B through F were used for cells (50 wells in total), with row G left for an empty media control. The calculation was overestimated by 10 mL to account for the dead volume in the 300 ml reservoir. Once the media volume was calculated, the appropriate volume of media was pipetted in 25 mL increments into the 250 mL bottle using a 25 mL serological pipette. The 250 ml bottle was capped tightly, and placed into a 37° C. water bath for 2 minutes. While the culture media was warming, 10 mL of fresh media was pipetted from the 500 mL culture media bottle into a sterile 25 mL reservoir. Using the Eppendorf multichannel pipette, 130 ul of media was piptted from the 25 mL reservoir into row G of the 96 well u-bottom plate. Once the 250 mL bottle of media was warmed, the volume of culture needed was pipetted into the bottle, and mixed gently with a 25 mL serological pipette as to not create bubbles, and then the contents of the bottle were pipetted into a new 300 mL reservoir. Using the liquid handler, 130 ul of culture was pipetted from the 300 mL reservoir into rows B through F of the 96 well u-bottom plate. Once the culture was added, the plate was placed into a 37° C. incubator until the compound master plate was prepared for use.
Two 96 well u-bottom plates were prepared by writing the master plate name in the upper right corner of the plate lid. Labeling one DMSO master and the other Media Master. The compounds of interest were obtained from the laboratory freezer, and placed into a 25 well storage box with a lid, and set the box aside. The compounds were vortexed after thawing but before use. Using an automatic multichannel pipette, 20 ul of 100% DMSO was pipetted into wells B3-B11 through G3-G11 of the DMSO master plate. For each compound on the master plate, 50 ul of the compound were pipetted in the appropriate well of row 2 (reference plate map to determine appropriate well). A serial dilution was prepared beginning by aspirating 20 ul from row 2 and mixing with row 3, repeating until row 11 was reached. Using the liquid handler, 194 ul of Daudi media was dispensed into wells B2-B11 through G2-G11 of the Media master plate. Using the liquid handler, 6 ul from the DMSO master plate was aspirated and dispensed into the media master plate, mixing 100 ul twice.
Compounds from master plate were then added to the culture plate. The culture plates were removed from the incubator, and set inside the biosafety cabinet. Using a liquid handler, 20 ul from wells B2 to B11 through G2 to G11 of master plate were aspirated, and dispensed into wells B2 to B11 through G2 to G11 of culture plate. This set was continued with each culture plate. […]

[2] = tested on: WI-38 cells (AID negative); experiment: Primary screening cell killing assay repeated in AID negative cells; type: cell-based, Human; conditions: WI-38 cells (AID negative), read-out: AID− EC50
Description: as §1
Percent cell death and EC50 values were calculated by comparing the cell viability of the compound treated wells to the non-treated wells. Normalized RLU values were obtained by subtracting the media well values from each of the wells in the same column, and then dividing that value by the DMSO treated cells values. The percent kill was then calculated by subtracting the normalized RLU value from 1 and multiplying by 100. The average normalized percent kill value and standard error of the mean was then calculated. The kill values were then inputted into Prism with the corresponding standard errors. In Prism a non-linear regression line was plotted with the data points using a semi-log scale, and the EC50 value was calculated.
The activity of the claimed compounds was measured in a variety of cell lines with different expression levels of activation induced cytidine deaminase (AICDA). The potency assay was repeated in all of the listed cell lines and the EC50 values recorded.

[3] = Bi-directional Caco-2 permeability; type: in vitro ADME; conditions: human; for Papp A→B / Papp B→A: Caco-2, 37 C, up to 90 minutes; for Papp A→B: apical to basolateral, read-out: AB Papp (cm/sec × 10^6); for Papp B→A: basolateral to apical, read-out: BA Papp (cm/sec × 10^6); for efflux ratio: Caco-2 efflux ratio, read-out: BA/AB Ratio
Description: Bi-directional Caco-2 permeability was assayed. Caco-2 cells were seeded onto permeable polycarbonate supports and allowed to differentiate for about 3 weeks prior to being used in the assays. The cells were then exposed to the compounds from either the apical or basolateral sides and incubated at 37 C for up to 90 minutes under light agitation. Compound transport was then measured using LC/MS/MS analysis at 30, 60, and 90 minutes.

[4] = Caco-2, apical to basolateral, read-out: AB Recovery %
[5] = Caco-2, basolateral to apical, read-out: BA Recovery %

SMILES: COc1cc(NC(=O)OC(C)C)cnc1-c1ncc(-c2ccc(NC(=O)OCC3CCNCC3)cc2S(=O)(=O)NC(C)(C)C)s1 [Compound 56]
EC50 [1]: ≤ 1000 nM

SMILES: CC(C)OC(=O)NC1CCC(c2ncc(-c3ccc(NC(=O)N[C@H](C)c4ccccc4)cc3S(=O)(=O)NC(C)(C)C)s2)CC1 (stereo partly shown) [Compound 24]
EC50 ([2]; Homo sapiens): > 1000 nM
EC50 [1]: ≤ 100 nM

SMILES: CC(C)OC(=O)NC1CCC(c2ncc(-c3ccc(NC(=O)OC[C@H]4CCCN4)cc3S(=O)(=O)NC(C)(C)C)s2)CC1 (stereo partly shown) [Compound 36]
EC50 [1]: ≤ 1000 nM

SMILES: CC(C)OC(=O)NC1CCC(c2ncc(-c3ccc(NC(=O)O[C@H](C)c4ccccc4)cc3S(=O)(=O)NC(C)(C)C)s2)CC1 (stereo partly shown) [Compound 43]
EC50 ([2]; Homo sapiens): > 1000 nM
EC50 [1]: ≤ 1000 nM

recovery at 90 min [3, 4]: 98.2%
recovery at 90 min [3, 5]: 96.8%
SMILES: CC(C)OC(=O)NC1CCC(c2ncc(-c3ccc(NC(=O)OC[C@H]4CCCN4C)cc3S(=O)(=O)NC(C)(C)C)s2)CC1 (stereo partly shown) [Compound 34]
EC50 [1]: ≤ 1000 nM

SMILES: CC(C)OC(=O)NC1CCC(c2ncc(-c3ccc(NC(=O)NCc4ccc(O)cc4)cc3S(=O)(=O)NC(C)(C)C)s2)CC1 (stereo not shown) [Compound 73]
EC50 ([2]; Homo sapiens): > 1000 nM
EC50 [1]: ≤ 100 nM

SMILES: CC(C)OC(=O)Nc1ccc(-c2cnc([C@H]3CC[C@H](NC(=O)OC(C)C)CO3)s2)c(S(=O)(=O)NC(C)(C)C)c1 [Compound 60B]
EC50 [1]: ≤ 1000 nM

SMILES: CN1CCC[C@H]1COC(=O)N[C@H]1CC[C@H](c2ncc(-c3ccc(NC(=O)NCc4ccccc4)cc3S(=O)(=O)NC(C)(C)C)s2)CC1 [Compound 12]
EC50 [1]: ≤ 1000 nM

SMILES: CN1CCC[C@@H]1COC(=O)NC1CCC(c2ncc(-c3ccc(NC(=O)NCc4ccccc4)cc3S(=O)(=O)NC(C)(C)C)s2)CC1 (stereo partly shown) [Compound 11]
EC50 [1]: ≤ 1000 nM

SMILES: CC(C)OC(=O)NC1CCC(c2ncc(-c3ccc(NC(=O)OCC4CCNCC4)cc3S(=O)(=O)NC(C)(C)C)s2)CC1 (stereo not shown) [Compound 33]
EC50 [1]: > 1000 nM

SMILES: C=S(=O)(NC(C)(C)C)c1cc(NC(=O)NCc2ccccc2)ccc1-c1cnc(N2CCC(NC(=O)OC(C)C)CC2)s1 (stereo not shown) [Compound 68]
EC50 [1]: ≤ 1000 nM

SMILES: CC(C)OC(=O)NC1CCC(c2ncc(-c3ccc(NC(=O)OC[C@@H]4CCCN4)cc3S(=O)(=O)NC(C)(C)C)s2)CC1 (stereo partly shown) [Compound 37]
EC50 [1]: ≤ 1000 nM

SMILES: CC(C)OC(=O)N[C@@H]1CCC(c2ncc(-c3ccc(NC(=O)NCc4ccccc4)cc3S(=O)(=O)NC(C)(C)C)s2)OC1 (mixture of isomers) [Compound 59]
EC50 ([2]; Homo sapiens): > 1000 nM
EC50 [1]: ≤ 100 nM

SMILES: CC(C)OC(=O)Nc1ccc(-c2cnc(C34CCC(NC(=O)OC(C)C)(CC3)CC4)s2)c(S(=O)(=O)NC(C)(C)C)c1 [Compound 17]
EC50 [1]: ≤ 1000 nM

recovery at 90 min [3, 4]: 83.1%
recovery at 90 min [3, 5]: 89%
Papp A→B [3]: 1.1 ×10⁻⁶ cm/s
Papp B→A [3]: 21 ×10⁻⁶ cm/s
efflux ratio [3]: 18.7
SMILES: CC(C)OC(=O)NC1CCC(c2ncc(-c3ccc(NC(=O)NCc4ccncc4)cc3S(=O)(=O)NC(C)(C)C)s2)CC1 (stereo not shown) [Compound 22]
EC50 [1]: ≤ 1000 nM

SMILES: CC(C)OC(=O)Nc1ccc(-c2cnc([C@@H]3CC[C@@H](NC(=O)OC(C)C)CN3)s2)c(S(=O)(=O)NC(C)(C)C)c1 (relative stereo) [Compound 63]
EC50 [1]: ≤ 1000 nM

SMILES: CC(C)OC(=O)N[C@H]1CC[C@@H](c2ncc(-c3ccc(NC(=O)NCc4ccccc4)cc3S(=O)(=O)NC(C)(C)C)s2)CC1 [Compound 66B]
EC50 [1]: ≤ 1000 nM

SMILES: CC(C)OC(=O)Nc1ccc(-c2cnc(C3CCC(NC(=O)OC4COC4)CC3)s2)c(S(=O)(=O)NC(C)(C)C)c1 (stereo not shown) [Compound 48]
EC50 [1]: ≤ 1000 nM

SMILES: CC(C)OC(=O)NC1CCC(c2ncc(-c3ccc(NC(=O)NCc4cccnc4)cc3S(=O)(=O)NC(C)(C)C)s2)CC1 (stereo not shown) [Compound 25]
EC50 [1]: ≤ 100 nM

recovery at 90 min [3, 4]: 73.6%
recovery at 90 min [3, 5]: 84.4%
Papp A→B [3]: 7.6 ×10⁻⁶ cm/s
Papp B→A [3]: 10.8 ×10⁻⁶ cm/s
efflux ratio [3]: 1.4
SMILES: CC(C)(C)NS(=O)(=O)c1cc(NC(=O)NCc2ccccn2)ccc1-c1cnc(C2CCC(NC(=O)OC(C)(C)C)CC2)s1 (stereo not shown) [Compound 45]
EC50 [1]: ≤ 100 nM

SMILES: CC(C)OC(=O)Nc1ccc(-c2cnc(C3CCC(NC(=O)OC[C@@H]4CCCN4C)CC3)s2)c(S(=O)(=O)NC(C)(C)C)c1 (stereo partly shown) [Compound 9]
EC50 [1]: ≤ 1000 nM

SMILES: CC(C)OC(=O)NC1CCC(c2ncc(-c3ccc(NC(=O)O[C@@H](C)c4ccccc4)cc3S(=O)(=O)NC(C)(C)C)s2)CC1 (stereo partly shown) [Compound 41]
EC50 [2]: > 1000 nM

SMILES: CC(C)OC(=O)N[C@@H]1CC[C@@H](c2ncc(-c3ccc(NC(=O)NCc4ccccc4)cc3S(=O)(=O)NC(C)(C)C)s2)OC1 [Compound 59A]
EC50 [1]: ≤ 1000 nM

recovery at 90 min [3, 4]: 58.6%
recovery at 90 min [3, 5]: 78.3%
SMILES: CC(C)NC(=O)OC1CCC(c2ncc(-c3ccc(NC(=O)NCc4ccccc4)cc3S(=O)(=O)NC(C)(C)C)s2)CC1 (stereo not shown) [Compound 21]
EC50 [1]: ≤ 100 nM

SMILES: CC(C)OC(=O)NC1CCC(c2ncc(-c3ccc(NC(=O)NCc4ccc(F)cc4)cc3S(=O)(=O)NC(C)(C)C)s2)CC1 (stereo not shown) [Compound 23]
EC50 [1]: ≤ 100 nM

recovery at 90 min [3, 4]: 98.8%
recovery at 90 min [3, 5]: 108%
SMILES: CC(C)OC(=O)NC1CCC(c2ncc(-c3ccc(NC(=O)OC[C@@H]4CCCN4C)cc3S(=O)(=O)NC(C)(C)C)s2)CC1 (stereo partly shown) [Compound 35]
EC50 [1]: ≤ 1000 nM

SMILES: CC(C)OC(=O)Nc1ccc(-c2cnc(C3CC[C@@H](NC(=O)OC(C)C)CO3)s2)c(S(=O)(=O)NC(C)(C)C)c1 (mixture of isomers) [Compound 60]
EC50 [1]: ≤ 1000 nM

recovery at 90 min [3, 4]: 36.2%
recovery at 90 min [3, 5]: 69.4%
Papp A→B [3]: 3.2 ×10⁻⁶ cm/s
Papp B→A [3]: 4.2 ×10⁻⁶ cm/s
efflux ratio [3]: 1.3
SMILES: CC(C)OC(=O)Nc1ccc(-c2cnc(C3CCC(NC(=O)OC(C)(C)C)CC3)s2)c(S(=O)(=O)NC(C)(C)C)c1 (stereo not shown) [Compound 44]
EC50 [1]: > 1000 nM

SMILES: CC(C)OC(=O)Nc1ccc(-c2cnc(C3CC(NC(=O)OC(C)C)C3)s2)c(S(=O)(=O)NC(C)(C)C)c1 (stereo not shown) [Compound 65]
EC50 [1]: ≤ 1000 nM

recovery at 90 min [3, 4]: 66.9%
recovery at 90 min [3, 5]: 81%
SMILES: CC(C)OC(=O)NC1CCC(c2ncc(-c3ccc(NC(=O)NCc4ccccc4F)cc3S(=O)(=O)NC(C)(C)C)s2)CC1 (stereo not shown) [Compound 28]
EC50 [1]: ≤ 100 nM

recovery at 90 min [3, 4]: 55.9%
recovery at 90 min [3, 5]: 92%
Papp A→B [3]: 1.7 ×10⁻⁶ cm/s
Papp B→A [3]: 2.1 ×10⁻⁶ cm/s
efflux ratio [3]: 1.2
SMILES: CC(C)OC(=O)Nc1ccc(-c2cnc(C3CCC(NC(=O)OC4CCCC4)CC3)s2)c(S(=O)(=O)NC(C)(C)C)c1 (stereo not shown) [Compound 7]
EC50 [1]: ≤ 1000 nM

recovery at 90 min [3, 4]: 44.8%
recovery at 90 min [3, 5]: 96.6%
Papp A→B [3]: 9.4 ×10⁻⁶ cm/s
Papp B→A [3]: 10.4 ×10⁻⁶ cm/s
efflux ratio [3]: 1.1
SMILES: CC(C)NC(=O)OC1CCC(c2ncc(-c3ccc(NC(=O)OC(C)C)cc3S(=O)(=O)NC(C)(C)C)s2)CC1 (stereo not shown) [Compound 20]
EC50 [1]: > 1000 nM

SMILES: CC(C)OC(=O)Nc1ccc(-c2sc(C3CCC(NC(=O)OC(C)C)CC3)nc2F)c(S(=O)(=O)NC(C)(C)C)c1 (stereo not shown) [Compound 58]
EC50 [1]: ≤ 1000 nM
